Data reported in patent publication US20260191845A1, “PYRIDINE-2-THIOL 1-OXIDE DERIVATIVES AND THEIR USE FOR TREATMENT OF MAMMALIAN INFECTIONS CAUSED BY MYCOBACTERIUM OR FUNGI” (priority 2022, published 2026).

What was measured:
[1] = tested on: IC1 M. tuberculosis MDR clinical isolate; test: REMA MIC90, broad spectrum of microorganisms; format: cell-based; details: Mycobacterium tuberculosis, read-out: MIC to Compound 2
[2] = tested on: IC2 M. tuberculosis MDR clinical isolate; test: REMA MIC90, broad spectrum of microorganisms; format: cell-based; details: Mycobacterium tuberculosis, read-out: MIC to Compound 2

Question: What does the source list for `CCOC(=O)c1ccc([S-])[n+]([O-])c1.[Na+]` [Compound 2, Sodium 5-(ethoxycarbonyl)pyridine-2-thiolate 1-oxide]?
Answer: MIC [1]: 25 µg/mL; MIC [2]: 25 µg/mL
